{"source": "paper PMC2805098", "about": "(Biochemistry, 2009)", "key": {"wild-type MTHFR [1]": {"test_system": "wild-type MTHFR", "conditions": "25 °C, pH 7.2, cited from earlier work"}, "Phe223Ala MTHFR [2]": {"biological_target": "T1, Phe223Ala MTHFR (Escherichia coli, UniProt P0AEZ1, F223A)", "experiment": "Oxidative half-reaction with CH2-H4folate, stopped-flow", "assay_type": "biochemical"}, "Phe223Ala MTHFR [3]": {"biological_target": "T1, Phe223Ala MTHFR", "experiment": "NADH-CH2-H4folate oxidoreductase assay, steady-state"}, "wild-type MTHFR [4]": {"test_system": "wild-type MTHFR", "conditions": "25 °C, cited from earlier work"}, "Phe223Leu MTHFR [5]": {"biological_target": "T2, Phe223Leu MTHFR (Escherichia coli, UniProt P0AEZ1, F223L)", "experiment": "NADH-CH2-H4folate oxidoreductase assay, steady-state", "assay_type": "biochemical"}, "Phe223Leu MTHFR [6]": {"biological_target": "T2, Phe223Leu MTHFR", "experiment": "Oxidative half-reaction with CH2-H4folate, stopped-flow", "assay_type": "biochemical"}, "Phe223Leu MTHFR [7]": {"biological_target": "T2, Phe223Leu MTHFR", "experiment": "Reaction of reduced enzyme with menadione, stopped-flow", "assay_type": "biochemical", "conditions": "[…] μM menadione, within dead time of the instrument, data not shown"}, "Phe223Ala MTHFR [8]": {"biological_target": "T1, Phe223Ala MTHFR", "experiment": "Reaction of reduced enzyme with menadione, stopped-flow", "assay_type": "biochemical", "conditions": "[…] μM menadione, within dead time of the instrument, data not shown"}, "Phe223Ala MTHFR [9]": {"biological_target": "T1, Phe223Ala MTHFR", "experiment": "NADH-menadione oxidoreductase assay, steady-state", "assay_type": "biochemical", "conditions": "[…] μM menadione, varying NADH, 25 °C, pH 7.2"}, "wild-type MTHFR [10]": {"test_system": "wild-type MTHFR", "conditions": "25 °C, pH 7.2, cited from earlier work", "remark": "listed apart in the source"}, "PheA2": {"test_system": "PheA2", "conditions": "read-out: Km for NADH; 53 °C; cited from earlier work"}, "HpaC": {"test_system": "HpaC", "conditions": "read-out: Km for NADH; 30 °C; cited from earlier work"}, "Phe223Ala MTHFR [11]": {"biological_target": "T1, Phe223Ala MTHFR", "experiment": "Reductive half-reaction with NADH, stopped-flow", "assay_type": "biochemical"}, "Phe223Leu MTHFR [12]": {"biological_target": "T2, Phe223Leu MTHFR", "experiment": "Reductive half-reaction with NADH, stopped-flow", "assay_type": "biochemical"}, "Phe223Leu MTHFR [13]": {"biological_target": "T2, Phe223Leu MTHFR", "experiment": "NADH-menadione oxidoreductase assay, steady-state", "assay_type": "biochemical"}, "wild-type MTHFR [14]": {"test_system": "wild-type MTHFR", "conditions": "25 °C, pH 7.2; cited from earlier work"}, "Phe223Leu MTHFR [15]": {"biological_target": "T2, Phe223Leu MTHFR", "experiment": "NADPH binding", "conditions": "data not shown"}, "[16]": {"conditions": "25 °C, pH 7.2, anaerobic, 450 nm"}}, "note": "Values joined by “and” are separate entries in the source; they are usually repeats but may differ in a detail not shown here. Equal entries are not always repeated. Where two headings read alike, the source gives them in different places."}
{"molecule": "Nc1nc2c(c(=O)[nH]1)N1CN(c3ccc(C(=O)N[C@@H](CCC(=O)O)C(=O)O)cc3)C[C@H]1CN2", "note": "[CH2-H4folate, 5,10-methylenetetrahydrofolate]", "values": [{"measurement": "kcat", "setting": "wild-type MTHFR [1]", "result": "10.4 ± 1.0", "unit": "s⁻¹"}, {"measurement": "Ki", "setting": "wild-type MTHFR [1]; read-out: Ki for CH2-H4folate", "result": "320 ± 25", "unit": "µM"}, {"measurement": "Km", "setting": "wild-type MTHFR [1]; read-out: Km for CH2-H4folate", "result": "0.5 ± 0.1", "unit": "µM"}, {"measurement": "Kd", "setting": "Phe223Ala MTHFR [2]", "result": "500 ± 230", "unit": "µM"}, {"measurement": "change in standard free binding energy for CH2-H4folate", "setting": "Phe223Ala MTHFR [2]", "result": 2.3, "unit": "kcal/mol"}, {"measurement": "decrease in affinity for CH2-H4folate compared to wild-type", "setting": "Phe223Ala MTHFR [2]", "result": 45, "unit": "fold"}, {"measurement": "slower rate of oxidation compared to slow phase of wild-type", "setting": "Phe223Ala MTHFR [2]", "result": 2, "unit": "fold"}, {"measurement": "k5’ maximal rate constant, slow phase", "setting": "Phe223Ala MTHFR [2]; 25 °C, pH 7.2, anaerobic, slow phase (~16% of absorbance change)", "result": "4.5 ± 1.1 ^e s^−1"}, {"measurement": "decrease in kcat compared to wild-type", "setting": "Phe223Ala MTHFR [3]", "result": 4, "unit": "fold"}, {"measurement": "kcat", "setting": "Phe223Ala MTHFR [3]; anaerobic, 25 °C, pH 7.2", "result": "2.9 s⁻¹ and 2.9 ± 0.5 s⁻¹"}, {"measurement": "theoretical turnover number calculated from the two half-reactions", "setting": "Phe223Ala MTHFR [3]; eq 9, slow phase of oxidation", "result": 4.0, "unit": "s⁻¹"}, {"measurement": "k5’, slow phase", "setting": "wild-type MTHFR [4]; pH 7.2, slow phase", "result": "10.3 ± 1.0 ^e s^−1"}, {"measurement": "Kd", "setting": "wild-type MTHFR [4]; read-out: Kd for CH2-H4folate, pH 7.2", "result": "11 ± 1", "unit": "µM"}, {"measurement": "Ki", "setting": "Phe223Leu MTHFR [5]", "result": "160 ± 27", "unit": "µM"}, {"measurement": "CH2-H4folate concentration above which inhibition was seen", "setting": "Phe223Leu MTHFR [5]; 1000 μM NADH", "result": "exceeding 100 μM"}, {"measurement": "theoretical turnover number calculated from the two half-reactions", "setting": "Phe223Leu MTHFR [5]; eq 8, ping-pong bi-bi", "result": 17, "unit": "s⁻¹"}, {"measurement": "Kd", "setting": "Phe223Leu MTHFR [6]", "result": "9 ± 2", "unit": "µM"}, {"measurement": "increase in rate of oxidation compared to slow phase of wild-type enzyme", "setting": "Phe223Leu MTHFR [6]", "result": 3, "unit": "fold"}]}
{"molecule": "CC1=CC(=O)c2ccccc2C1=O", "note": "[menadione]", "values": [{"measurement": "time of reaction of reduced enzyme with menadione", "setting": "Phe223Leu MTHFR [7]", "result": "≤ 3", "unit": "ms"}, {"measurement": "time of reaction of reduced enzyme with menadione", "setting": "Phe223Ala MTHFR [8]", "result": "≤ 3", "unit": "ms"}]}
{"molecule": "NADH", "values": [{"measurement": "kcat", "setting": "Phe223Ala MTHFR [9]", "result": "22 ± 4", "unit": "s⁻¹"}, {"measurement": "k2’", "setting": "wild-type MTHFR [10]", "result": "55 ± 6", "unit": "s⁻¹"}, {"measurement": "Kd", "setting": "wild-type MTHFR [10]; read-out: Kd for NADH", "result": "32 ± 5", "unit": "µM"}, {"measurement": "Km", "setting": "PheA2", "result": 8.8, "unit": "µM"}, {"measurement": "Km", "setting": "HpaC", "result": 36.8, "unit": "µM"}, {"measurement": "k2’ maximal observed rate constant for reduction", "setting": "Phe223Ala MTHFR [11]; [16]", "result": "40 ± 2", "unit": "s⁻¹"}, {"measurement": "change in standard free binding energy for NADH", "setting": "Phe223Ala MTHFR [11]; at 298 K, from 40-fold increase in Kd", "result": 2.2, "unit": "kcal/mol"}, {"measurement": "increase in Kd for NADH over wild-type enzyme", "setting": "Phe223Leu MTHFR [12]", "result": 14, "unit": "fold"}, {"measurement": "k2’ maximal observed rate constant for reduction", "setting": "Phe223Leu MTHFR [12]; [16]", "result": "35 ± 1", "unit": "s⁻¹"}, {"measurement": "increase in Km for NADH compared to wild-type", "setting": "Phe223Leu MTHFR [13]", "result": 7, "unit": "fold"}, {"measurement": "kcat", "setting": "Phe223Leu MTHFR [13]; […] μM menadione, varying NADH, 25 °C, pH 7.2", "result": "31 ± 4", "unit": "s⁻¹"}, {"measurement": "kcat", "setting": "wild-type MTHFR [14]", "result": "55 ± 8.3", "unit": "s⁻¹"}]}
{"molecule": "NADPH", "values": [{"measurement": "ability to bind NADPH", "setting": "Phe223Leu MTHFR [15]", "result": "no ability to bind NADPH"}]}
